Results taken from patent publication US20240067651A1 (Biohaven Therapeutics Ltd., priority 2019, published 2024).
Each block holds one compound with its values, some of them ahead of it.

Key:
[1] = Stability in Simulated Intestinal Fluid (SIF); assay type: in vitro ADME; set-up: key: % parent compound remaining relative to 0-minute sample
Protocol: (§1) Simulated gastric fluid (SGF) and Simulated intestinal fluid (SIF) stability are in vitro metrics indicating the ability of a compound to pass through the gastrointestinal tract […] or completely digested. An undigested or nearly undigested compound will usually survive gut transit long enough to be absorbed into the systemic circulation. Greater than 50% remaining intact compound at 1 hour indicates a relatively stable molecule that will likely be absorbed in the gut.
(§2) For each test compound, samples at a final concentration of 2 μg/mL are prepared in respective blank simulated gastric fluid with pepsin (pH 1.2) and simulated intestinal fluid with pancreatin (pH 6.8). All samples are incubated at 37° C. on a 150-rpm orbital shaker, and an aliquot is removed at predetermined time points (0 to 60 minutes). Samples are precipitated with three volumes of acetonitrile containing propranolol as internal standard, and centrifuged for 10 min at 2,000 g before LC-MS/MS analysis of the supernatant solutions. Percent parent compound remaining is determined relative to 0-minute incubation samples. If a sufficient number of time points are available, the degradation half-life is calculated based on the natural log of % compound remaining vs. time plot.

[2] = Stability in Simulated Gastric Fluid (SGF); assay type: in vitro ADME; set-up: key: % parent compound remaining relative to 0-minute sample
Protocol: as §1, §2

Plasma Stability = assay type: in vitro ADME, human
Protocol: Plasma stability estimates the ability of a compound to remain intact in the blood. For prodrugs that are intended to be hydrolyzed by plasma enzymes a certain level of instability in plasma indicates the compound is probably breaking down to the parent drug. A stability range of 25-75% remaining parent compound after 1 hour in plasma indicates the compound is likely breaking down to the parent drug molecule and a patient will be exposed to this parent molecule.
Assessment of plasma stability was carried out by individual incubations of drug candidates in fresh human plasma at a concentration of 1 μM for 1 hour at 37° C. After which, the samples were de-proteinized by addition of 2 volumes of acetonitrile containing 0.1% formic acid and internal standard, vortex mixed for 2 minutes and centrifuged at 4,000 rpm for 10 minutes to pellet precipitated protein. The resulting supernatant containing the drug candidates was diluted 5-fold with water containing 0.1% formic acid and submitted to LCMS/MS analysis. All determinations were done in triplicate. Plasma stability was expressed as percent of control remaining.
See Pelletier et al. ACS Med. Chem. Lett. 2018, 9, 752-756.

[3] = % remaining at 1 h, SIF with pancreatin pH 6.8, 2 μg/mL, 37° C.
[4] = % remaining at 1 h, SGF with pepsin pH 1.2, 2 μg/mL, 37° C.
[5] = % remaining at 1 h, human plasma, 1 μM, 37° C.
[6] = simulated intestinal fluid, remaining at 1 h
[7] = simulated gastric fluid, remaining at 1 h
[8] = % remaining at 1 h in simulated intestinal fluid, the 15th table
[9] = % remaining at 1 h in simulated gastric fluid, the 15th table
[10] = % remaining at 1 h in human plasma, the 15th table

SIF [1, 3]: 91%
SGF [2, 4]: 96%
human Plasma stability (Plasma Stability; [5]): 98%
Compound: CC(C)OCCn1c(=S)[nH]c(=O)c2c1ccn2S(C)(=O)=O [Example 76, 5-methanesulfonyl-1-[2-(propan-2-yloxy)ethyl]-2-sulfanylidene-1H,2H,3H,4H,5H-pyrrolo[3,2-d]pyrimidin-4-one]

Compound: CC(C)OCCn1c(=S)[nH]c(=O)c2c1ccn2COC(=O)CCCCOC(=O)CNC(=O)OC(C)(C)C [Example 328, {4-oxo-1-[2-(propan-2-yloxy)ethyl]-2-sulfanylidene-1H,2H,3H,4H,5H-pyrrolo[3,2-d]pyrimidin-5-yl}methyl 5-[(2-{[(tert-butoxy)carbonyl]amino}acetyl)oxy] pentanoate]
SIF ([1]; % remaining @ 1 h): 6%@ 1 h
SGF ([2]; % remaining @ 1 h): 97%@ 1 h
human Plasma stability (Plasma Stability; % remaining @ 1 h): 11%@ 1 h

Compound: CC(C)C[C@@H](N)C(=O)OCn1ccc2c1c(=O)[nH]c(=S)n2CCOC(C)C.O=C(O)C(F)(F)F [Example 324, trifluoroacetic acid {4-oxo-1-[2-(propan-2-yloxy)ethyl]-2-sulfanylidene-1H,2H,3H,4H,5H-pyrrolo[3,2-d]pyrimidin-5-yl}methyl (2R)-2-amino-4-methylpentanoate]
SIF ([1]; % remaining @ 1 h): 24%@ 1 h
SGF ([2]; % remaining @ 1 h): 98%@ 1 h
human Plasma stability (Plasma Stability; % remaining @ 1 h): 1%@ 1 h

Compound: CC(C)OCCn1c(SCOC(=O)N(C)CCOCCN)nc(=O)c2c1ccn2COC(=O)N(C)CCOCCN.O=C(O)C(F)(F)F.O=C(O)C(F)(F)F [Example 382, bis(trifluoroacetic acid) (2-{[({[2-(2-aminoethoxy)ethyl](methyl)carba-moyl}oxy)methyl]sulfanyl}-4-oxo-1-[2-(propan-2-yloxy)ethyl]-1H,4H,5H-pyrrolo[3,2-d]pyrimidin-5-yl)methyl N-[2-(2-aminoethoxy)ethyl]-N-methylcarbamate]
SIF [1, 6]: 99% remaining
SGF [2, 7]: 100% remaining
human Plasma stability (Plasma Stability; human plasma, remaining at 1 h): 98% remaining

SIF [1, 3]: 2%
SGF [2, 4]: 77%
human Plasma stability (Plasma Stability; [5]): 2%
Compound: CC(C)OCCn1c(=S)[nH]c(=O)c2c1ccn2COC(=O)CCCCCCC(=O)OCn1ccc2c1c(=O)[nH]c(=S)n2CCOC(C)C [Example 136, 1,8-Bis({4-oxo-1-[2-(propan-2-yloxy)ethyl]-2-sulfanylidene-1H,2H,3H,4H,5H-pyrrolo[3,2-d]pyrimidin-5-yl}methyl) octanedioate]

Compound: CC(C)OCCn1c(=S)[nH]c(=O)c2c1ccn2COC(=O)OCCOCCN.O=C(O)C(F)(F)F [Example 354, trifluoroacetic acid 2-(2-aminoethoxy)ethyl {4-oxo-1-[2-(propan-2-yloxy)ethyl]-2-sulfanylidene-1H,2H,3H,4H,5H-pyrrolo[3,2-d]pyrimidin-5-yl}methyl carbonate]
SIF [1, 6]: 3% remaining
SGF [2, 7]: 99% remaining
human Plasma stability (Plasma Stability; human plasma, remaining at 1 h): 1% remaining

SIF [1, 3]: 87%
SGF [2, 4]: 90%
human Plasma stability (Plasma Stability; [5]): 99%
Compound: Cc1ccccc1S(=O)(=O)n1ccc2c1c(=O)[nH]c(=S)n2CCOC(C)C [Example 80, 5-(2-methylbenzenesulfonyl)-1-[2-(propan-2-yloxy)ethyl]-2-sulfanylidene-1H,2H,3H,4H,5H-pyrrolo[3,2-d]pyrimidin-4-one]

Compound: CC(C)OCCn1c(SCOC(=O)N(C)CCOCCN)nc(=O)c2[nH]ccc21.O=C(O)C(F)(F)F [Example 380, trifluoroacetic acid ({4-oxo-1-[2-(propan-2-yloxy)ethyl]-1H,4H,5H-pyrrolo[3,2-d]pyrimidin-2-yl}sulfanyl) methyl N-[2-(2-aminoethoxy)ethyl]-N-methylcarbamate]
SIF [1, 6]: 99% remaining
SGF [2, 7]: 100% remaining
human Plasma stability (Plasma Stability; human plasma, remaining at 1 h): 85% remaining

SIF ([1]; simulated intestinal fluid, at 1 h): 93% remaining
SGF ([2]; simulated gastric fluid, at 1 h): 99% remaining
human Plasma stability (Plasma Stability; human plasma, at 1 h): 100% remaining
Compound: CC(C)OCCn1c(=S)[nH]c(=O)c2c1ccn2COC(=O)N(C)c1ccccc1Cl [Example 250]

SIF [1, 8]: 67% @ 1 h
SGF [2, 9]: 78% @ 1 h
human Plasma stability (Plasma Stability; [10]): 96% @ 1 h
Compound: ({4-oxo-1-[2-(propan-2-yloxy)ethyl]-1H,4H,5H-pyrrolo[3,2-d]pyrimidin-2 yl}sulfanyl)methyl N-butylcarbamate [Example 185]

SIF [1, 8]: 52% remaining
SGF [2, 9]: 45% remaining
human Plasma stability (Plasma Stability; [10]): 3% remaining
Compound: CCOC(=O)OCSc1nc(=O)c2c(ccn2CSc2nc(=O)c3[nH]ccc3n2CCOC(C)C)n1CCOC(C)C [Example 202]

SIF [1, 3]: 79% remaining
SGF [2, 4]: 99% remaining
human Plasma stability (Plasma Stability; [5]): 10% remaining
Compound: CC(C)OCCn1c(=S)n2c(=O)c3c1ccn3COC(=O)CCC(=O)N1CCC(CC1)C(=O)OC2 [Example 140, 19-[2-(propan-2-yloxy)ethyl]-20-sulfanylidene-3,13-dioxa-1,8,15,19-tetraazatetra-cyclo[13.5.2.2^{5,8}.0^{18,22}]tetra-cosa-16,18(22)-diene-4,9,12,21-tetrone]

Compound: CC(C)OCCn1c(SCOC(=O)[C@@H](N)Cc2ccccc2)nc(=O)c2[nH]ccc21.O=C(O)C(F)(F)F [Example 310, trifluoroacetic acid ({4-oxo-1-[2-(propan-2-yloxy)ethyl]-1H,4H,5H-pyrrolo[3,2-d]pyrimidin-2-yl}sulfanyl)methyl (2S)-2-amino-3-phenylpropanoate]
SIF ([1]; % remaining @ 1 h): 32% @ 1 h
SGF ([2]; % remaining @ 1 h): 99% @ 1 h
human Plasma stability (Plasma Stability; % remaining @ 1 h): 4% @ 1 h

SIF [1, 3]: 96%
SGF [2, 4]: 99%
human Plasma stability (Plasma Stability; [5]): 98%
Compound: CCS(=O)(=O)n1ccc2c1c(=O)[nH]c(=S)n2CCOC(C)C [Example 77, 5-(ethanesulfonyl)-1-[2-(propan-2-yloxy)ethyl]-2-sulfanylidene-1H,2H,3H,4H,5H-pyrrolo[3,2-d]pyrimidin-4-one]

Compound: N-[2-(2-aminoethoxy)ethyl]-4-oxo-1-[2-(propan-2-yloxy)ethyl]-2-sulfanylidene-1H, 2H,3H,4H,5H-pyrrolo[3,2-d]pyrimidine-5-carboxamide; trifluoroacetic acid [Example 376]
SIF [1, 6]: 99% remaining
SGF [2, 7]: 98% remaining
human Plasma stability (Plasma Stability; human plasma, remaining at 1 h): 95% remaining

SIF [1, 3]: 82%
SGF [2, 4]: 92%
human Plasma stability (Plasma Stability; [5]): 98%
Compound: CC(C)OCCn1c(=S)[nH]c(=O)c2c1ccn2S(=O)(=O)c1ccccc1F [Example 79, 5-(2-fluorobenzenesulfonyl)-1-[2-(propan-2-yloxy)ethyl]-2-sulfanylidene-1H,2H,3H,4H,5H-pyrrolo[3,2-d]pyrimidin-4-one]

SIF [1, 3]: 67%
SGF [2, 4]: 86%
human Plasma stability (Plasma Stability; [5]): 67%
Compound: CC(C)OCCn1c2nc(=O)c3c1ccn3COC(=O)CCCCCCC(=O)OCS2 [Example 135, 22-[2-(Propan-2-yloxy)ethyl]-6,15-dioxa-17-thia-4,19,22-triazatricyclo[16.3.1.0^{4,21}]docosa-1(21),2,18-triene-7,14,20-trione]

Compound: CC(C)OCCn1c(=S)[nH]c(=O)c2c1ccn2C[C@]1(C(=O)O)CCCN1C(=O)OC(C)(C)C.O=C(O)C(F)(F)F [Example 2, trifluoroacetic acid 1-tert-butyl 2-{4-oxo-1-[2-(propan-2-yloxy)ethyl]-2-sulfanylidene-1H,2H,3H,4H,5H-pyrrolo [3,2-d]pyrimidin-5-yl}methyl(2S)-pyrrolidine-1,2-dicarboxylate]
human Plasma stability (Plasma Stability; [5]): 73%
